Like-named read-outs stand apart in the source and are kept apart here.

This is an account of results in article PMC3942691, “The Dipeptide Monoester Prodrugs of Floxuridine and Gemcitabine—Feasibility of Orally Administrable Nucleoside Analogs” (Pharmaceuticals, 2014).

Data set [1] deals with Panc-1 cells. The data set can be described thus: Cell proliferation assay (XTT) in Panc-1 cells. In kind it is cell-based. The method, then:
Cell proliferation studies were conducted with Panc-1 and AsPC-1 cells. The cells were seeded into 96-well plates at 80,000 cells per well and allowed to attach/grow for 48 h before drug solutions were added. The culture medium (DMEM +10% fetal bovine serum or RPMI-1640 +10% fetal bovine serum) was removed and the cells were gently washed once with sterile pH 6.0 uptake buffer. Floxuridine, 5′-L-phenylalanyl-L-tyrosyl-floxuridine, gemcitabine and 5′-L-phenylalanyl-L-tyrosyl-gemcitabine were 2-fold serially diluted in pH 6.0 uptake buffer from 5 to 0.078 mmol/L. Buffer alone was used as a 100% viability control. The wash buffer was removed and 30 µL drug solution per well was added and incubated at 37 °C for 2 h in the cell incubator. After this time, the drug solutions were removed and the cells were again gently washed twice with sterile uptake buffer. The culture medium was then added to each well after washing. The cells were allowed to recover for 24 h before evaluating cell viability via 2,3-bis[2-methoxy-4-nitro-5-sulfophenyl]-2H-tetrazolium-5-carboxanilide inner salt (XTT) assays. A mixture (30 µL) containing XTT (1 mg/mL) in sterile RPMI-1640 without phenol red and phenazine methosulfate (N-methyldibenzopyrazine methyl sulfate in sterile PBS, 0.383 mg/mL) reagents were added to the cells and incubated at 37 °C for 1 h, after which the absorbance at 450 nm was read. The concentrations required to inhibit cell growth by 50% (GI50) were calculated using GraphPad Prism version 3.0 by nonlinear data fitting.
A general note: Tetrazolium dyes change colour on reduction, which living cells bring about.

The nature of data set [2]: Drug concentration and species in mouse plasma after in situ perfusion. In kind it is in vivo. The conditions noted are these: for parent drug, share of totally observed amount in plasma: parent drug perfused; for parent drug, share of totally observed amount in plasma / first metabolite (5-FU or cytosine) in plasma: mouse plasma after in situ perfusion; for prodrug form, share of totally observed amount in plasma: mouse plasma at 2 h following in situ perfusion. The method, then:
All animal experiments were conducted using protocols approved by the University of Michigan Committee of Use and Care of Animals (UCUCA). Female BALB/c mice (Charles River, IN, USA) weighing 20–25 g were used for all perfusion studies. Prior to each experiment, mice were fasted overnight with free access to water.
At the start of the study, the test compound (100 µM) in perfusion buffer (pH 6.0) including phenol red was perfused through the intestinal segment (Watson-Marlow Pump 323S, Watson-Marlow Bredel Inc., Wilimington, MA, USA), at the flow rate of 0.1 mL/min. The perfusion buffer was perfused for 30 min to assure steady-state and samples were taken in every 10 min for 90 min. At the end of perfusion, blood samples were collected by cardiac puncture. Blood samples with heparin were centrifuged at 1,000 × g for 10 min at 4 °C to collect plasma samples for LC-MS analysis. Following the termination of the experiment, the length of each perfused intestinal segment was measured.
(§1) The LC-MS analytical method of 5′-mono amino acid ester prodrugs of floxuridine has been reported previously. The LC-MS analysis of dipeptide monoester prodrugs of floxuridine and gemcitabine along with their parent drugs was modified and performed in a similar manner. Briefly, LC-MS analysis of the uptake drug amount was performed in triplicate on LCMS-2010EV (Shimadzu Scientific Instruments, Kyoto, Japan) equipped with an ESI (electrospray ionization) source. The Shimadzu LC-MS system consisting of Shimadzu LC-20AD pumps with DGU-20A in-line vacuum degasser units, and SIL-20A HT autosampler with an InertSustain C-18, 2.1 × 50 mm, 3 µm particle size, (GL Sciences, Torrance, CA, USA) was used for the separation and the effluent from the column was introduced directly to the ionization source. The system was controlled by Shimadzu LCMS solution software (version 3) to collect and process data. All samples were run with Solvent A and Solvent B with Solvent B gradient changing from 0%–90% at a rate of 13.8%/min over a 22 min run. The mobile phase consisted of 0.1% TFA/water (Solvent A) and 0.1% TFA/acetonitrile (Solvent B) for gemcitabine, gemcitabine prodrug and floxuridine prodrug. The mobile phase consisted of 0.1% ammonium hydroxide/water (Solvent A) and 0.1% ammonium hydroxide /acetonitrile (Solvent B) for floxuridine. The ESI probe was operated with a detector voltage of 1.5 kV, CDL temperature of 250 °C, heat block of 200 °C, and nebulizing gas flow of 1.2 mL/min in positive mode for gemcitabine prodrugs and their metabolites. The drying gas was N2 delivered at 0.1 MPa.

Data set [3] has as its system Panc-1 cells. Kind of data set: Uptake study in Panc-1 cells. The data set is classed as cell-based. The conditions noted are these: 0.1 mM, 1 h. The method, then:
(§2) Caco-2, Panc-1, and AsPC-1 cells were grown on a 6-well plate for 18, 6, and 6 days, respectively. Wells were rinsed with MES (pH 6.0) buffer twice. Fresh MES buffer was reapplied to each well and incubated at 37 °C for 15 min. Each drug was individually tested from freshly prepared solutions in MES buffer (0.1 mM, total 0.3 mL) with the presence and the absence of 10 mM glycyl-proline (Gly-Pro). The solution was placed in each well and incubated at 37 °C for 60 min. Drug solution was removed and 3 mL of ice-cold PBS was immediately placed in each well. Each well was rinsed with 3 mL of cold-PBS twice and 0.5 mL of methanol/H2O (1:1) containing 0.1% TFA was placed in each well. The cell suspension was collected and transferred to a new tube. Those tubes were spun at 1,000 × g at 4 °C for 5 min. The supernatant was mixed with equal amount of water with either 0.1% formic acid or 0.1% ammonium hydroxide for LC-MS analysis. The cell pullets were used to determine protein amount with the Bio-Rad DC Protein Assay using bovine serum albumin as a standard.
as §1

In data set [4] the test system is Caco-2 cells. The data set can be described thus: Uptake study in Caco-2 cells. In kind it is cell-based. As to conditions: 0.1 mM, 1 h. The protocol: as §2
as §1, with “The mobile phase consisted of 0.1% TFA/water (Solvent A) and 0.1% TFA/acetonitrile (Solvent B) for gemcitabine, gemcitabine prodrug and floxuridine prodrug. The mobile phase consisted of 0.1% ammonium hydroxide/water (Solvent A) and 0.1% ammonium hydroxide /acetonitrile (Solvent B) for floxuridine. The ESI probe was operated with a detector voltage of 1.5 kV, CDL temperature of 250 °C, heat block of 200 °C, and nebulizing gas flow of 1.2 mL/min in positive mode for gemcitabine prodrugs and their metabolites. The drying gas was N2 delivered at 0.1 MPa.” left out

Data set [5] in a line: Chemical stability in 0.01 N HCl, SIF (pH 6.0) and pH 7.4 phosphate buffer. The data set is classed as physicochemical. The protocol:
The nonenzymatic hydrolysis of the prodrugs was determined as described above, except that each well contained pH 7.4 phosphate buffers (10 mmol/L) instead of cell homogenate.
The experiments concerning drug and their prodrug stability were performed at 37 °C in 0.01 N HCl, SIF (pH 6.0), and pH 7.4 phosphate buffer. […] Prodrug metabolites such as floxuridine, 5-fluorouracil (5-FU), gemcitabine, 2′-deoxy-2′,2′-difluorouridine, uracil, and cytosine were monitored along with prodrug disappearance in this experiment.

Setting [6] is: Homo sapiens, PANC-1, 2 h exposure, 24 h recovery, XTT.
Setting [7] is: 0.01 N HCl, 37 °C, read-out: 0.01 N HCl t1/2.
Where [8] appears, read: SIF pH 6.0, 37 °C, read-out: SIF pH 6.0 t1/2.
[9] abbreviates: pH 7.4 phosphate buffer, 37 °C, read-out: Buffer pH 7.4 t1/2.

For the compound “2′,2′-difluoro-2′-deoxyuridine [Gemcitabine]”, the GI50 – broadly, the concentration at which growth is held to half of that of the control – in data set [1] (tested 5 to 0.078 mmol/L) is > 5 mM. For the same compound, the “parent drug, share of totally observed amount in plasma” value in data set [2] is 83%. Moreover, the “Parent drug, share of uptake” value in data set [3] worked out at 20%; in data set [4], 95%. The “0.01 N HCl t1/2” value in data set [5] (0.01 N HCl, 37 °C) is >2 h. Moreover, in data set [5] (SIF pH 6.0, 37 °C), the “SIF pH 6.0 t1/2” value was >120 min. Moreover, the “Buffer pH 7.4 t1/2” value in data set [5] (pH 7.4 phosphate buffer, 37 °C) was >120 min.

With `NC(Cc1ccccc1)C(=O)NC(Cc1ccc(O)cc1)C(=O)OCC1OC(n2cc(F)c(=O)[nH]c2=O)CC1O` [5′-L-Phenylalanyl-L-tyrosyl-floxuridine], the GI50 in data set [1] (setting [6]) was 3 ± 0.3 mM. For the same compound, the “drug concentration in mouse plasma, rank among tested compounds” value in data set [2] (after in situ perfusion) is on record as “highest drug concentration”. Moreover, the “first metabolite (5-FU or cytosine) in plasma” value in data set [2] is recorded as “not observed”. For the same compound, the “prodrug form, share of totally observed amount in plasma” value in data set [2] is on record as 81%. The results for the “Prodrug, share of uptake” value in data set [3] and in data set [4] were 98% and 45%, respectively. Further, the half-life in data set [5] (setting [7]), in data set [5] (setting [8]) and in data set [5] (setting [9]) was > 2 h each time.

In data set [1] (setting [6]), `Nc1ccn(C2OC(COC(=O)C(Cc3ccc(O)cc3)NC(=O)C(N)Cc3ccccc3)C(O)C2(F)F)c(=O)n1` [5′-L-Phenylalanyl-L-tyrosyl-gemcitabine] showed a GI50 of 3.2 ± 0.7 mM. In data set [2], the “first metabolite (5-FU or cytosine) in plasma” value was “one-third”. In addition, the “prodrug form, share of totally observed amount in plasma” value in data set [2] turned out to be 40%. Besides, the figures for the “Prodrug, share of uptake” value in data set [3] and in data set [4] were 9% and 6%, respectively. Besides, the half-life in data set [5] (setting [7]) is > 2 h; in data set [5] (setting [8]), > 2 h; in data set [5] (setting [9]) it was 0.56 ± 0.0233 h.

Regarding `O=c1[nH]c(=O)n([C@H]2C[C@H](O)[C@@H](CO)O2)cc1F` [Floxuridine, 5-fluoro-2′-deoxyuridine], in data set [1] (Homo sapiens, PANC-1, tested 5 to 0.078 mmol/L), the GI50 was > 5 mM. In addition, in data set [2], the “parent drug, share of totally observed amount in plasma” value was “only drug observed”. The uptake amount result in data set [3] is listed as “not observed”. Also, the half-life in data set [5] (setting [7]), in data set [5] (setting [8]) and in data set [5] (setting [9]) was > 2 h throughout.
